In patent publication US20230330093A1, “APPLICATION OF NITROGEN-CONTAINING SATURATED HETEROCYCLIC COMPOUND” (SHANGHAI PHARMACEUTICALS HOLDING CO., LTD., priority 2020, published 2023):
Where “and” joins values, the source holds several entries; their conditions need not be identical. Equal entries are not always repeated. Where two headings read alike, the source gives them in different places.

Columns and labels:
[1] = test system: rhesus monkeys with spontaneous chronic kidney disease; test: Effect on serum K+, 8-week administration; conditions: Valsartan group (n = 3)
Method: In the trial, animals were brought in three stages. In the first stage, there were two groups: 3 animals (No. 257, No. 4721, No. 287) in a group with 5 mg/kg of the malate of compound of formula I, and 2 animals (No. 1029, No. 4713) in the placebo group. […] In the third stage, there were two groups: 5 animals (No. 4829, No. 6501, No. 287, No. 4721, No. 2091) in a group with 2 mg/kg of the malate of compound of formula I, and 5 animals (No. 1567, No. 4861, No. 5453, No. 6653, No. 5073) in a group with 1 mg/kg of the malate of compound of formula I.
Serum potassium, twice before administration, once every 2 weeks during the administration period;
Blood biochemical and urine index detection equipment: Roche cobas6000 analyzer series C501 module detection. ELISA kit was used for NT-proBNP test.

cynomolgus monkeys = test: 4-week repeated-dose safety study: clinical observations, mortality, body weight; type: in vivo; conditions: for body weight gain: no statistical significance
Method: The compound of Formula I was prepared and confirmed according to the method in CN103562191B. The 0.5% of sodium carboxymethyl cellulose (CMC-Na) was used as a vehicle. The compound of Formula I was stored at room temperature, protected from light and wetness. For cynomolgus monkey safety studies, the test substance was suspended in 0.5% CMC-Na at the relevant concentrations. The homogeneity, concentration and one week stability of prepared suspension was analyzed to ensure proper administration of the reported doses. The six month accelerated stability of active pharmaceutical ingredient (API) was tested by the inventor.
Healthy male and female cynomolgus monkeys aged 3-4 years were supplied by Hainan New Source Biotech Co. Ltd. (Hainan, China). The body weight range at the start of treatment was 3.2-5.8 kg for male and 2.5-3.7 kg for female. They were housed for a 36-day acclimation period before study. Once a day in the morning, animals eat and drink freely.
Mortality and clinical signs were evaluated daily from the beginning of the quarantine period. Each animal was examined at least twice daily for any change in behavior, reaction to treatment or illness after administration.
Observations included, but were not limited to the following: changes in skin and fur; eyes and mucous membranes; respiratory, circulatory, autonomic, central nervous systems and behavior patterns. Rectal temperature was measured before administration (twice), at 1 and 24 h after first administration, and before d26 administration and at 1 and 24 h after d26 administration. Body weight was measured every week. Food consumption was estimated for monkey every day. Ophthalmoscopy was conducted for the monkey study using a portable slit lamp (YZ2) and a direct ophthalmoscope (GFJY-01B).

[2] = 4-week safety study: toxicokinetics (plasma AUC0-24h, Cmax); type: in vivo, cynomolgus monkeys
Method: Blood samples were obtained on day1 and day26 at 0, 0.5, 1.5, 3, 5, 7 and 24 h after administration. On each occasion, approximately 1.0 mL of blood was drawn from the vein and collected into EDTA-K2 anticoagulant tubes. The blood samples were put on ice and then centrifuged (3500 rpm, 5 min) at 4° C. to obtain plasma samples, which were kept frozen at about −80° C. until analysis. Toxicokinetics determination of the compound of Formula I was conducted at the Institute of Materia Medica, Chinese Academy of Sciences (Shanghai, China).

[3] = Plasma pharmacokinetics and bioavailability after intravenous and oral administration; type: in vivo, cynomolgus monkeys; conditions: for Vd/F: read-out: Vss/F
Method: Cynomolgus monkeys (3/sex/group: weight 3-5 kg, age 5-6 years old) were obtained from SuZhou XiShan ZhongKe Laboratory Animals (Shanghai, China). Animals were housed for a 7-day acclimation period before study. The monkeys were individually caged in a controlled temperature (18-26° C.) and humidity (50±20%) animal room with an air flow of 10 plus air changes per hour with fresh air. The lighting cycle was 12 h on and 12 h off, and the monkeys were fed once a day in the morning. All animal experiments were performed in accordance with the Animal Care and Use Guidelines set by the AMMS Animal Care and Use Committee.
The compound of Formula I was intravenously or orally administered to cynomolgus monkeys fasted overnight. The doses were 1 mg/kg (intravenous), 1 mg/kg, 3 mg/kg, and 9 mg/kg (oral). Blood samples were collected from a limb vein at 0, 5, and 15 min and at […], 0.5, 1, 2, 3, 4, 6, 8, 12, and 24 h (0.2 mL for each time point) after administration. All blood samples were centrifuged immediately after collection at 10,000×g for 5 min and the plasmas were stored at −75±10° C. until analysis. Plasma samples were prepared by protein precipitation. The concentrations of the compound of Formula I in plasma were determined by the validated liquid chromatography-tandem mass spectrometry method.
The pharmacokinetic parameters such as the area under the plasma concentration-time curve (AUC), maximum plasma concentration (Cmax), time to reach Cmax (Tmax), half-life (T1/2), total body plasma clearance (CL), mean residence time (MRT) and volume of distribution at steady state (Vss) were calculated by non-compartmental analysis with WinNonlin v1.3 (Pharsight, Mountain View, CA, USA). For allometric scaling, animal pharmacokinetic data were simulated by a two-compartment model with the Kinetica 5.1 software package (v.3.0; InnaPhase, Philadelphia, PA, USA).

[4] = both sexes, cynomolgus monkey, plasma, Monkey, 1 mg/kg iv
[5] = both sexes, cynomolgus monkey, plasma, Monkey, 1 mg/kg po
[6] = both sexes, cynomolgus monkey, plasma, Monkey, 3 mg/kg po
[7] = both sexes, cynomolgus monkey, plasma, Monkey, 9 mg/kg po
[8] = both sexes, cynomolgus, cynomolgus monkey, plasma, Monkey, 3 mg/kg po
[9] = both sexes, cynomolgus, cynomolgus monkey, plasma, Monkey, 9 mg/kg po

CCCCC(=O)N(Cc1ccc(-c2ccccc2-c2nnn[nH]2)cc1)[C@H](C(=O)O)C(C)C [Valsartan, reference compound]
K^+ ([1]; 2 weeks, Mean ± SD): 5.09 ± 0.54 mmol/L | K^+ ([1]; 2 weeks, individual animals): 5.38 mmol/L and 4.47 mmol/L and 5.43 mmol/L | K^+ ([1]; 4 weeks, Mean ± SD): 5.04 ± 0.58 mmol/L | K^+ ([1]; 4 weeks, individual animals): 5.68 mmol/L and 4.55 mmol/L and 4.88 mmol/L | K^+ ([1]; 6 weeks, Mean ± SD): 5.06 ± 0.24 mmol/L | K^+ ([1]; 6 weeks, individual animals): 5.28 mmol/L and 4.81 mmol/L and 5.09 mmol/L | K^+ ([1]; 8 weeks, Mean ± SD): 5.13 ± 0.74 mmol/L | K^+ ([1]; 8 weeks, individual animals): 5.94 mmol/L and 4.50 mmol/L and 4.95 mmol/L | K^+ ([1]; Baseline 1, Mean ± SD): 4.37 ± 0.54 mmol/L | K^+ ([1]; Baseline 1, individual animals): 4.94 mmol/L and 3.86 mmol/L and 4.31 mmol/L | K^+ ([1]; Baseline 2, Mean ± SD): 4.66 ± 0.40 mmol/L | K^+ ([1]; Baseline 2, individual animals): 4.63 mmol/L and 4.27 mmol/L and 5.07 mmol/L

COC(=O)NCCCn1nc([C@@H](C)N(C(=O)[C@H]2CNCCO2)C2CC2)c2ccc(C)nc21 [compound of Formula I]
clinical signs of toxicity related to treatment in other animals (cynomolgus monkeys; 20, 100, 450 mg/kg/day for 4 weeks): no apparent clinical signs of toxicity | body weight gain (cynomolgus monkeys; high dose (450 mg/kg/day) females, controls 3.2±0.2): 2.7±0.4 | body weight gain (cynomolgus monkeys; high dose (450 mg/kg/day) males, controls 4.6±0.5): 4.1±0.5 | mortality (cynomolgus monkeys; high dose (450 mg/kg/day), nasogastric, day23): Treatment related early death occurred in one high dose female | accumulation ([2]; after consecutive 28 days of administration): the accumulation was not apparent | Systemic exposure (plasma AUC0-24h and Cmax of parent compound and main metabolite) vs dose ([2]; dose range of 20 to 450 mg/kg): proportionately greater than the magnitude of the dose increments | F ([3]; Monkey, 1 mg/kg po): 3.3% | F ([3]; Monkey, 3 mg/kg po): 8.0% | F ([3]; Monkey, 9 mg/kg po): 11.3% | half-life ([3]; both sexes, cynomolgus monkey, plasma, iv, 1 mg/kg, Monkey, 1 mg/kg iv): 2.73 h | half-life ([3]; both sexes, cynomolgus monkey, plasma, po, 1 mg/kg, Monkey, 1 mg/kg po): 2.9 h | half-life ([3]; both sexes, cynomolgus monkey, plasma, po, 9 mg/kg, Monkey, 9 mg/kg po): 5.99 h | half-life ([3]; both sexes, cynomolgus monkey, plasma, po, 9 mg/kg, oral 1, 3, 9 mg/kg, monkey plasma): 2.73 to 5.99 h | AUC [3, 4]: 421 ng·h/mL | Cmax [3, 4]: 466 ng/mL | MRT [3, 4]: 0.97 h | Vd ([3]; both sexes, cynomolgus monkey, plasma, Monkey, 1 mg/kg iv, read-out: Vss): 1.86 L/kg | AUC [3, 5]: 11.8 ng·h/mL | CL/F [3, 5]: 1410 mL/min/kg | Cmax [3, 5]: 3.99 ng/mL | MRT [3, 5]: 4.32 h | Tmax [3, 5]: 1 h | Vd/F [3, 5]: 366 L/kg | CL/F [3, 6]: 503 mL/min/kg | Vd/F [3, 6]: 104 L/kg | AUC [3, 7]: 426 ng·h/mL | Cmax [3, 7]: 263 ng/mL | MRT [3, 7]: 2.62 h | Tmax [3, 7]: 1 h | clearance ([3]; both sexes, cynomolgus monkey, plasma, intravenous 1 mg/kg, monkeys): 32.7 mL/min/kg | bioavailability ([3]; both sexes, cynomolgus monkey, plasma, monkeys, calculated from AUC0-24h after iv and po administration): 3.3 to 11.3% | half-life ([3]; both sexes, cynomolgus, cynomolgus monkey, plasma, po, 3 mg/kg, Monkey, 3 mg/kg po): 3.68 h | AUC [3, 8]: 99.4 ng·h/mL | Cmax [3, 8]: 42.2 ng/mL | MRT [3, 8]: 3.46 h | Tmax [3, 8]: 1.3 h | CL/F [3, 9]: 353 mL/min/kg | Vd/F [3, 9]: 55.5 L/kg | distribution volume ([3]; intravenous 1 mg/kg, monkeys): 1.86 L/kg
